# Laboratory results taken from patent EP2424865B1 (Boehringer Ingelheim International GmbH, priority 2009, dated 2010).
# How the values were obtained:
# [1] = biological target: human recombinant cytochrome P450 2C9 (Homo sapiens, UniProt P11712); experiment: Biological Test Example 7: CYP2C9 inhibition ([O-methyl-14C]-Naproxen O-demethylation)
# [2] = biological target: human recombinant cytochrome P450 3A4 (Homo sapiens, UniProt P08684)
# Plasma protein = experiment: Biological Test Example 5: fraction unbound in human plasma (equilibrium dialysis); format: in vitro ADME
# [3] = biological target: human recombinant cytochrome P450 2C19 (Homo sapiens, UniProt P33261); experiment: Biological Test Example 8: CYP2C19 inhibition ([N-methyl-14C]-Diazepam N-demethylation)
# Chain of human recombinant cytochrome P450 2C19 (P33261 whole entry): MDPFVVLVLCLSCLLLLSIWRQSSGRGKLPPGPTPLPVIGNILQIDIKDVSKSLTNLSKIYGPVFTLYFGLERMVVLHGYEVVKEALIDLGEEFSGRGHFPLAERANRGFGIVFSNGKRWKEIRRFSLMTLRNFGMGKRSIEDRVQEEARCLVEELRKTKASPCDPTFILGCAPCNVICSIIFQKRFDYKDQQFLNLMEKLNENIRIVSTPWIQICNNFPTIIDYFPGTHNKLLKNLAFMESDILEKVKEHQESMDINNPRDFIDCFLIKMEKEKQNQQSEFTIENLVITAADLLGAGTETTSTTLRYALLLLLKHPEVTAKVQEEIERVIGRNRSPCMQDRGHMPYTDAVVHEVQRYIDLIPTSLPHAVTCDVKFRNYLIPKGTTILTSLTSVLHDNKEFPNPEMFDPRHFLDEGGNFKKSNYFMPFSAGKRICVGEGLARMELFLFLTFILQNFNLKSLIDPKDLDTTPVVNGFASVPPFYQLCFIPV
# Chain of human recombinant cytochrome P450 3A4 (P08684 whole entry): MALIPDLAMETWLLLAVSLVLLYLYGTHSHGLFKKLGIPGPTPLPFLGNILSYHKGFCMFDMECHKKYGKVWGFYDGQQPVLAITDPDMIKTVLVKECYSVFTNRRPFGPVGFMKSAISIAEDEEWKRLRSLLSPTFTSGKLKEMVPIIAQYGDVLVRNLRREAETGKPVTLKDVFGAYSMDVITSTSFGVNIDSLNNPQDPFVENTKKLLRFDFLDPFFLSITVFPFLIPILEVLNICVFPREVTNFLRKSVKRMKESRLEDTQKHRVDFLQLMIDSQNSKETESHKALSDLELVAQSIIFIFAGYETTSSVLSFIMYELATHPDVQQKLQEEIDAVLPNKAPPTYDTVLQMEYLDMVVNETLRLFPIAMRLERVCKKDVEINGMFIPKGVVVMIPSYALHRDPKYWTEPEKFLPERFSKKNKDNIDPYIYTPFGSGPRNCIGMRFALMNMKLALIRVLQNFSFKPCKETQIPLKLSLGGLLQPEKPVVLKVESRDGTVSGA
# Chain of human recombinant cytochrome P450 2C9 (P11712 whole entry): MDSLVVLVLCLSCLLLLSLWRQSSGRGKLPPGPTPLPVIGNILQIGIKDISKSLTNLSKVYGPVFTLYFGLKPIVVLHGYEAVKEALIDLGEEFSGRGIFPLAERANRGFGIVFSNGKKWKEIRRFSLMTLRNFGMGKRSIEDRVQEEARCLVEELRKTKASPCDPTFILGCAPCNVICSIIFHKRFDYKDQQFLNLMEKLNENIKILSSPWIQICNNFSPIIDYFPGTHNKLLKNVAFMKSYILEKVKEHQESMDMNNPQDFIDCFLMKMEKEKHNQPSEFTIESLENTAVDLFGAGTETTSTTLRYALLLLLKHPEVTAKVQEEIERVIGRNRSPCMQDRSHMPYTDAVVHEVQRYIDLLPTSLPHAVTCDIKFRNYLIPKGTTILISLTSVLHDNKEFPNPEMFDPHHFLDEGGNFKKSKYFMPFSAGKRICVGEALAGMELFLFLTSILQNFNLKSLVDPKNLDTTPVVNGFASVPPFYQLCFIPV
structure (smiles),measurement,setting,value
"C[C@@H](c1ccc(-c2ccn(CCF)c(=O)c2)cc1)N1CC[C@](CC(C)(C)O)(c2ccccc2)OC1=O [Example 25, (S)-3-((S)-1-(4-(1-(2-fluoroethyl)-2-oxo-1,2-dihydropyridin-4-yl)phenyl)ethyl)-6-(2-hydroxy-2-methylpropyl)-6-phenyl-1,3-oxazinan-2-one]",IC50,[1],30 µM
same,IC50,[2],33 µM
"C[C@@H](c1ccc(-c2ccn(C)c(=O)c2)cc1)N1CC[C@](CC(C)(C)O)(c2ccccc2)OC1=O [Example 48, (S)-6-(2-hydroxy-2-methylpropyl)-3-((S)-1-(4-(1-methyl-2-oxo-1,2-dihydropyridin-4-yl)phenyl)ethyl)-6-phenyl-1,3-oxazinan-2-one]",Biological Test Example 5 (%),Plasma protein; Examples,8.7%
"CCn1cc(-c2ccc([C@H](C)N3CC[C@](CC(C)(C)O)(c4ccc(F)cc4)OC3=O)cc2)ccc1=O [Example 62, (S)-3-((S)-1-(4-(1-ethyl-6-oxo-1,6-dihydropyridin-3-yl)phenyl)ethyl)-6-(4-fluorophenyl)-6-(2-hydroxy-2-methylpropyl)-1,3-oxazinan-2-one]",IC50,[2],48 µM
same,IC50,[3],38 µM
"C[C@@H](c1ccc(-c2ccc(=O)n(CC(F)(F)F)c2)cc1)N1CC[C@](CC(C)(C)O)(c2ccccc2)OC1=O [Example 67, (S)-6-(2-hydroxy-2-methylpropyl)-3-((S)-1-(4-(6-oxo-1-(2,2,2-trifluoroethyl)-1,6-dihydropyridin-3-yl)phenyl)ethyl)-6-phenyl-1,3-oxazinan-2-one]",IC50,[1],41 µM
same,IC50,[2],28 µM
same,IC50,[3],34 µM
"CC[C@@H](c1ccc(-c2ccc(=O)n(C)c2)cc1)N1CC[C@](CC(C)(C)O)(c2ccccc2)OC1=O [Example 54, (S)-6-(2-hydroxy-2-methylpropyl)-3-((S)-1-(4-(1-methyl-6-oxo-1,6-dihydropyridin-3-yl)phenyl)propyl)-6-phenyl-1,3-oxazinan-2-one]",Biological Test Example 5 (%),Plasma protein; Examples,9.1%
same,IC50,[3],18 µM
"CCn1cc(-c2ccc([C@H](C)N3CC[C@](CC(C)(C)O)(c4ccccc4)OC3=O)cc2)ccc1=O [Example 53, (S)-3-((S)-1-(4-(1-ethyl-6-oxo-1,6-dihydropyridin-3-yl)phenyl)ethyl)-6-(2-hydroxy-2-methylpropyl)-6-phenyl-1,3-oxazinan-2-one]",Biological Test Example 5 (%),Plasma protein; Examples,12.8%
"C[C@@H](c1ccc(-c2ccn(CC(F)(F)F)c(=O)c2)cc1)N1CC[C@](CC(C)(C)O)(c2ccccc2)OC1=O [Example 66, (S)-6-(2-hydroxy-2-methylpropyl)-3-((S)-1-(4-(2-oxo-1-(2,2,2-trifluoroethyl)-1,2-dihydropyridin-4-yl)phenyl)ethyl)-6-phenyl-1,3-oxazinan-2-one]",IC50,[1],10 µM
same,IC50,[2],18 µM
same,Biological Test Example 5 (%),Plasma protein; Examples,5.5%
same,IC50,[3],11 µM
"C[C@@H](c1ccc(-c2ccn(C(F)F)c(=O)c2)cc1)N1CC[C@](CC(C)(C)O)(c2ccccc2)OC1=O [Example 5, (S)-3-((S)-1-(4-(1-(difluoromethyl)-2-oxo-1,2-dihydropyridin-4-yl)phenyl)ethyl)-6-(2-hydroxy-2-methylpropyl)-6-phenyl-1,3-oxazinan-2-one]",IC50,[2],29 µM
"C[C@@H](c1ccc(-c2ccc(=O)n(C(F)F)c2)cc1)N1CC[C@](CC(C)(C)O)(c2ccccc2)OC1=O [Example 4, (S)-3-((S)-1-(4-(1-(difluoromethyl)-6-oxo-1,6-dihydropyridin-3-yl)phenyl)ethyl)-6-(2-hydroxy-2-methylpropyl)-6-phenyl-1,3-oxazinan-2-one]",IC50,[1],17 µM
same,IC50,[2],21 µM
"C[C@@H](c1ccc(-c2ccn(C3CC3)c(=O)c2)cc1)N1CC[C@](CC(C)(C)O)(c2ccccc2F)OC1=O [Example 88, (S)-3-((S)-1-(4-(1-cyclopropyl-2-oxo-1,2-dihydropyridin-4-yl)phenyl)ethyl)-6-(2-fluorophenyl)-6-(2-hydroxy-2-methylpropyl)-1,3-oxazinan-2-one]",IC50,[1],28 µM
"Cc1cc(-c2ccc([C@H](C)N3CC[C@](CC(C)(C)O)(c4ccccc4)OC3=O)cc2)cc(=O)n1C [Example 64, (S)-3-((S)-1-(4-(1,6-dimethyl-2-oxo-1,2-dihydropyridin-4-yl)phenyl)ethyl)-6-(2-hydroxy-2-methylpropyl)-6-phenyl-1,3-oxazinan-2-one]",IC50,[1],33 µM
same,IC50,[3],17 µM
"CCn1ccc(-c2ccc([C@H](C)N3CC[C@](CC(C)(C)O)(c4ccccc4)OC3=O)cc2)cc1=O [Example 65, (S)-3-((S)-1-(4-(1-ethyl-2-oxo-1,2-dihydropyridin-4-yl)phenyl)ethyl)-6-(2-hydroxy-2-methylpropyl)-6-phenyl-1,3-oxazinan-2-one]",IC50,[1],> 50 µM
same,IC50,[2],> 50 µM
same,IC50,[3],25 µM
"C[C@@H](c1ccc(-c2cc[nH]c(=O)c2)cc1)N1CC[C@](CC(C)(C)C#N)(c2ccccc2)OC1=O [Example 14, 2,2-dimethyl-3-((R)-2-oxo-3-((S)-1-(4-(2-oxo-1,2-dihydropyridin-4-yl)phenyl)ethyl)-6-phenyl-1,3-oxazinan-6-yl)propanenitrile]",IC50,[1],18 µM
same,IC50,[2],25 µM
same,IC50,[3],24 µM
"Cc1cc(-c2ccc([C@H](C)N3CC[C@](CC(C)(C)O)(c4ccccc4)OC3=O)cc2)cn(C)c1=O [Example 61, (S)-3-((S)-1-(4-(1,5-dimethyl-6-oxo-1,6-dihydropyridin-3-yl)phenyl)ethyl)-6-(2-hydroxy-2-methylpropyl)-6-phenyl-1,3-oxazinan-2-one]",IC50,[1],40 µM
same,IC50,[3],18 µM
"C[C@@H](c1ccc(-c2ccc(=O)n(C)c2)cc1)N1CC[C@](CC(C)(C)C#N)(c2ccc(F)cc2)OC1=O [Example 69, 3-((R)-6-(4-fluorophenyl)-3-((S)-1-(4-(1-methyl-6-oxo-1,6-dihydropyridin-3-yl)phenyl)ethyl)-2-oxo-1,3-oxazinan-6-yl)-2,2-dimethylpropanenitrile]",IC50,[1],38 µM
same,IC50,[2],23 µM
"CC(C)n1cc(-c2ccc([C@H](C)N3CC[C@](CC(C)(C)O)(c4ccccc4)OC3=O)cc2)ccc1=O [Example 59, (S)-6-(2-hydroxy-2-methylpropyl)-3-((S)-1-(4-(1-isopropyl-6-oxo-1,6-dihydropyridin-3-yl)phenyl)ethyl)-6-phenyl-1,3-oxazinan-2-one]",IC50,[3],37 µM
"C[C@@H](c1ccc(-c2ccc(=O)n(C)c2)cc1)N1CC[C@](CC(C)(C)NS(C)(=O)=O)(c2ccccc2)OC1=O [Example 11, N-(2-methyl-1-((S)-3-((S)-1-(4-(1-methyl-6-oxo-1,6-dihydropyridin-3-yl)phenyl)ethyl)-2-oxo-6-phenyl-1,3-oxazinan-6-yl)propan-2-yl)methanesulfonamide]",Biological Test Example 5 (%),Plasma protein; Comparator Compounds,0.7%
"CCn1cc(-c2ccc([C@H](C)N3CC[C@](CC(C)(C)O)(c4ccccc4)OC3=O)cc2)cc(C)c1=O [Example 70, (S)-3-((S)-1-(4-(1-ethyl-5-methyl-6-oxo-1,6-dihydropyridin-3-yl)phenyl)ethyl)-6-(2-hydroxy-2-methylpropyl)-6-phenyl-1,3-oxazinan-2-one]",IC50,[2],28 µM
same,IC50,[3],23 µM
"CC(C)n1ccc(-c2ccc([C@H](C)N3CC[C@](CC(C)(C)O)(c4ccccc4)OC3=O)cc2)cc1=O [Example 68, (S)-6-(2-hydroxy-2-methylpropyl)-3-((S)-1-(4-(1-isopropyl-2-oxo-1,2-dihydropyridin-4-yl)phenyl)ethyl)-6-phenyl-1,3-oxazinan-2-one]",IC50,[1],47 µM
same,IC50,[2],43 µM
same,IC50,[3],28 µM
"C[C@@H](c1ccc(-c2ccc(=O)n(C3CC3)c2)cc1)N1CC[C@](CC(C)(C)O)(c2ccccc2)OC1=O [Example 3, (S)-3-((S)-1-(4-(1-cyclopropyl-6-oxo-1,6-dihydropyridin-3-yl)phenyl)ethyl)-6-(2-hydroxy-2-methylpropyl)-6-phenyl-1,3-oxazinan-2-one]",IC50,[1],38 µM
same,IC50,[2],44 µM
same,Biological Test Example 5 (%),Plasma protein; Comparator Compounds,0.3%
"C[C@@H](c1ccc(-c2ccc(=O)[nH]c2)cc1)N1CC[C@](CC(C)(C)C#N)(c2ccccc2)OC1=O [Example 71, 2,2-dimethyl-3-((R)-2-oxo-3-((S)-1-(4-(6-oxo-1,6-dihydropyridin-3-yl)phenyl)ethyl)-6-phenyl-1,3-oxazinan-6-yl)propanenitrile]",IC50,[1],17 µM
same,IC50,[2],6 µM
same,IC50,[3],24 µM
"CC[C@@H](c1ccc(-c2ccn(C)c(=O)c2)cc1)N1CC[C@](CC)(c2ccccc2)OC1=O [Example 58, (R)-6-ethyl-3-((S)-1-(4-(1-methyl-2-oxo-1,2-dihydropyridin-4-yl)phenyl)propyl)-6-phenyl-1,3-oxazinan-2-one]",IC50,[1],3 µM
same,IC50,[2],8 µM
same,IC50,[3],2 µM
"CC[C@@H](c1ccc(-c2ccc(=O)n(CC)c2)cc1)N1CC[C@](CC(C)(C)O)(c2ccccc2)OC1=O [Example 52, (S)-3-((S)-1-(4-(1-ethyl-6-oxo-1,6-dihydropyridin-3-yl)phenyl)propyl)-6-(2-hydroxy-2-methylpropyl)-6-phenyl-1,3-oxazinan-2-one]",Biological Test Example 5 (%),Plasma protein; Examples,9.0%
"C[C@@H](c1ccc(-c2ccc(=O)n(C)c2)cc1)N1CC[C@](CCCO)(c2ccccc2)OC1=O [Example 30, (R)-6-(3-hydroxypropyl)-3-((S)-1-(4-(1-methyl-6-oxo-1,6-dihydropyridin-3-yl)phenyl)ethyl)-6-phenyl-1,3-oxazinan-2-one]",Biological Test Example 5 (%),Plasma protein; Examples,13.9%
same,IC50,[3],27 µM
"CCn1c(C)cc(-c2ccc([C@H](C)N3CC[C@](CC(C)(C)O)(c4ccccc4)OC3=O)cc2)cc1=O [Example 72, (S)-3-((S)-1-(4-(1-ethyl-6-methyl-2-oxo-1,2-dihydropyridin-4-yl)phenyl)ethyl)-6-(2-hydroxy-2-methylpropyl)-6-phenyl-1,3-oxazinan-2-one]",IC50,[1],35 µM
same,IC50,[2],41 µM
same,IC50,[3],8 µM
